In patent US20120122870A1, “Treatment Of Ischemia-Reperfusion Injury” (MUSC FOUNDATION FOR RESEARCH DEVELOPMENT, priority 2009, published 2012):
pIC50: −log10 of the molar value.

Each compound was assayed on endogenous SK activity in MDA-MB-231 cells (assay: Cellular S1P production (endogenous SK activity) in MDA-MB-231 cells). Details: Homo sapiens, MDA-MB-231, MDA-MB-231 cells incubated with 20 μg/mL of compound; percentage of S1P production inhibited.
Assay type: cell-based
Experimental: Human SK was incubated with 6 μg/mL of the indicated compounds, and then assayed for activity as described above. Values in the column labeled “Recombinant SK (% inhibition)” represent the percentage of SK activity that was inhibited. MDA-MB-231 cells were incubated with 20 μg/mL of the indicated compounds and then assayed for endogenous SK activity as indicated above. Values in the column labeled “Cellular S1P (% inhibition)” represent the percentage of S1P production that was inhibited. Additionally, MDA-MB-231 cells were treated with varying concentration of certain compounds and the amount of S1P produced by the cells was determined. Values in the column labeled “Cellular S1P IC50 (μM)” represent the concentration of compound required to inhibit the production of S1P by 50%. ND=not determined.

SMILES | inhibition at 20 µg/mL [%]
O=C(NCCc1ccc(O)c(O)c1)C12CC3CC(C1)CC(c1ccc(Cl)cc1)(C3)C2 [A44, 3-(4-Chloro-phenyl)-adamantane-1-carboxylic acid [2-(3,4-dihydroxy-phenyl)-ethyl]-amide] | 88
CC(C)NCC12CC3CC(C1)CC(c1ccc(Cl)cc1)(C3)C2 [A75, [3-(4-Chloro-phenyl)-adamantan-1-ylmethyl]-isopropyl-amine] | 41
O=C(Nc1ccc(Cl)c(C(F)(F)F)c1)Nc1nc(-c2ccc(Cl)cc2)cs1 [B1, 1-[4-(4-Chloro-phenyl)-thiazol-2-yl]-3-(4-chloro-3-trifluoromethyl-phenyl)-urea] | 32
CCCCCCCCCCCCCC(=O)Nc1nc(-c2ccc(Cl)cc2)cs1 [B2, Tetradecanoic acid [4-(4-chloro-phenyl)-thiazol-2-yl]-amide] | 43
C=CCCCCCCCCC(=O)Nc1nc(-c2ccc(Cl)cc2)cs1 [B4, Undec-10-enoic acid [4-(4-chloro-phenyl)-thiazol-2-yl]-amide] | 39
O=C(C=Cc1ccc([N+](=O)[O-])cc1)Nc1nc(-c2ccc(Cl)cc2)cs1 [B5, N-[4-(4-Chloro-phenyl)-thiazol-2-yl]-3-(4-nitro-phenyl)-acrylamide] | 25
CCCCCCCCC=CCCCCCCCC(=O)Nc1nc(-c2ccc(Cl)cc2)cs1 [B6, Octadec-9-enoic acid [4-(4-chloro-phenyl)-thiazol-2-yl]-amide] | 21
O=C(C=Cc1ccccc1)Nc1nc(-c2ccc(Cl)cc2)cs1 [B7, N-[4-(4-Chloro-phenyl)-thiazol-2-yl]-3-phenyl-acrylamide] | 21
CCCC(=O)Oc1ccc(C=CC(=O)Nc2nc(-c3ccc(Cl)cc3)cs2)cc1OC [B8, Butyric acid 4-{2-[4-(4-chloro-phenyl)-thiazol-2-ylcarbamoyl]-vinyl}-2-methoxy-phenyl ester] | 80
COc1cc(C=CC(=O)Nc2nc(-c3cccc(Cl)c3)cs2)ccc1O [B9, N-[4-(3-Chloro-phenyl)-thiazol-2-yl]-3-(4-hydroxy-3-methoxy-phenyl)-acrylamide] | 32
COc1cc(C=CC(=O)Nc2nc(-c3ccc(Cl)cc3)cs2)ccc1OC(C)=O [B10, Acetic acid 4-{2-[4-(4-chloro-phenyl)-thiazol-2-ylcarbamoyl]-vinyl}-2-methoxy-phenyl ester] | 48
CCCC(=O)Oc1ccc(C=CC(=O)Nc2nc(-c3ccc(Cl)cc3)cs2)cc1OC(=O)CCC [B11, Butyric acid 2-butyryloxy-5-{2-[4-(4-chloro-phenyl)-thiazol-2-ylcarbamoyl]-vinyl}-phenyl ester] | 55
CC(=O)Oc1ccc(C=CC(=O)Nc2nc(-c3ccc(Cl)cc3)cs2)cc1 [B12, Acetic acid 4-{2-[4-(4-chloro-phenyl)-thiazol-2-ylcarbamoyl]-vinyl}-phenyl ester] | 13
CCCC(=O)Oc1ccccc1C=CC(=O)Nc1nc(-c2ccc(Cl)cc2)cs1 [B13, Butyric acid 2-{2-[4-(4-chloro-phenyl)-thiazol-2-ylcarbamoyl]-vinyl}-phenyl ester] | 0
CCCC(=O)Oc1cccc(C=CC(=O)Nc2nc(-c3ccc(Cl)cc3)cs2)c1 [B14, Butyric acid 3-{2-[4-(4-chloro-phenyl)-thiazol-2-ylcarbamoyl]-vinyl}-phenyl ester] | 39
CCCC(=O)Oc1ccc(C=CC(=O)Nc2nc(-c3ccc(Cl)cc3)cs2)cc1 [B15, Butyric acid 4-{2-[4-(4-chloro-phenyl)-thiazol-2-ylcarbamoyl]-vinyl}-phenyl ester] | 23

SMILES | inhibition at 20 µg/mL [%]
CCCC(=O)Oc1ccc(CC(=O)Nc2nc(-c3ccc(Cl)cc3)cs2)cc1OC [B16, Butyric acid 4-{[4-(4-chloro-phenyl)-thiazol-2-ylcarbamoyl]-methyl}-2-methoxy-phenyl ester] | 83
CCCC(=O)Oc1ccc(CC(=O)Nc2nc(-c3ccc(Cl)cc3)cs2)cc1OC(=O)CCC [B17, Butyric acid 2-butyryloxy-5-{[4-(4-chloro-phenyl)-thiazol-2-ylcarbamoyl]-methyl}-phenyl ester] | 57
CCCC(=O)Oc1cc(C=CC(=O)Nc2nc(-c3ccc(Cl)cc3)cs2)ccc1OC [B18, Butyric acid 5-{2-[4-(4-chloro-phenyl)-thiazol-2-ylcarbamoyl]-vinyl}-2-methoxy-phenyl ester] | 65
CCCC(=O)Oc1ccc(C=CC(=O)Nc2nc(-c3ccc(C)cc3)cs2)cc1OC [B19, Butyric acid 2-methoxy-4-[2-(4-p-tolyl-thiazol-2-ylcarbamoyl)-vinyl]-phenyl ester] | 53
CCCC(=O)Oc1ccc(C=CC(=O)Nc2nc(-c3ccc(Br)cc3)cs2)cc1OC [B20, Butyric acid 4-{2-[4-(4-bromo-phenyl)-thiazol-2-ylcarbamoyl]-vinyl}-2-methoxy-phenyl ester] | 62
O=C(C=Cc1ccc2c(c1)OCO2)Nc1nc(-c2ccc(Cl)cc2)cs1 [B21, 3-Benzo[1,3]dioxol-5-yl-N-[4-(4-chloro-phenyl)-thiazol-2-yl]-acrylamide] | 41
O=C(Cc1ccc2c(c1)OCO2)Nc1nc(-c2ccc(Cl)cc2)cs1 [B22, 2-Benzo[1,3]dioxol-5-yl-N-[4-(4-chloro-phenyl)-thiazol-2-yl]-acetamide] | 33
COc1ccc(CCC(=O)Nc2nc(-c3ccc(Cl)cc3)cs2)cc1OC [B23, N-[4-(4-Chloro-phenyl)-thiazol-2-yl]-3-(3,4-dimethoxy-phenyl)-propionamide] | 14
CCCC(=O)Oc1ccc(C(=O)Nc2nc(-c3ccc(Cl)cc3)cs2)cc1OC [B24, Butyric acid 4-[4-(4-chloro-phenyl)-thiazol-2-ylcarbamoyl]-2-methoxy-phenyl ester] | 69
CCCC(=O)Oc1ccc(C(=O)Nc2nc(-c3ccc(Cl)cc3)cs2)cc1OC(=O)CCC [B25, Butyric acid 2-butyryloxy-4-[4-(4-chloro-phenyl)-thiazol-2-ylcarbamoyl]-phenyl ester] | 79
CCCC(=O)Oc1ccc(CCC(=O)Nc2nc(-c3ccc(Cl)cc3)cs2)cc1OC(=O)CCC [B26, Butyric acid 2-butyryloxy-4-{2-[4-(4-chloro-phenyl)-thiazol-2-ylcarbamoyl]-ethyl}-phenyl ester] | 79
CCCC(=O)Oc1cc(C(=O)Nc2nc(-c3ccc(Cl)cc3)cs2)cc(OC(=O)CCC)c1OC(=O)CCC [B27, Butyric acid 2,6-bis-butyryloxy-4-[4-(4-chloro-phenyl)-thiazol-2-ylcarbamoyl]-phenyl ester] | 68
CCCC(=O)Oc1ccc(C=CC(=O)Nc2nc(-c3ccc(F)cc3)cs2)cc1OC [B28, Butyric acid 4-{2-[4-(4-fluoro-phenyl)-thiazol-2-ylcarbamoyl]-vinyl}-2-methoxy-phenyl ester] | 65
O=C(NCc1ccncc1)c1nc(-c2ccc(Cl)cc2)cs1 [B34, 4-(4-Chloro-phenyl)thiazole-2-carboxylic acid (pyridin-4-ylmethyl)amide] | 28
CN(C)c1ccc(CNC(=O)c2nc(-c3ccc(Cl)cc3)cs2)cc1 [B35, 4-(4-Chloro-phenyl)-thiazole-2-carboxylic acid 4-dimethylamino-benzylamide] | 17

Same assay, conditions: Homo sapiens; MDA-MB-231 cells, varying concentrations; concentration inhibiting S1P production by 50%

SMILES | pIC50
O=C(NCCc1ccc(O)c(O)c1)C12CC3CC(C1)CC(c1ccc(Cl)cc1)(C3)C2 [A44, 3-(4-Chloro-phenyl)-adamantane-1-carboxylic acid [2-(3,4-dihydroxy-phenyl)-ethyl]-amide] | 4.46
CCCC(=O)Oc1ccc(C=CC(=O)Nc2nc(-c3ccc(Cl)cc3)cs2)cc1OC [B8, Butyric acid 4-{2-[4-(4-chloro-phenyl)-thiazol-2-ylcarbamoyl]-vinyl}-2-methoxy-phenyl ester] | 4.47
